Reference: US9468662B2, “Use of the PAT nonapeptide in the treatment and prevention of neurodegenerative diseases” (ORPHIT, priority 2010, dated 2016)
No end group written: not given here.

Experiments:
[1] = test system: rat primary GABAergic medium spiny neurons; experiment: Cellular model of Huntington's disease, survival of rat primary GABAergic medium spiny neurons after glutamate injury; type: cell-based
Source text: GABAergic medium spiny neurons (MSNs) in the striatum represent the mostly affected cell population in HD brain. Being the main neuronal cell type of the striatum (85% in humans), GABAergic MSNs play a central role in the clinical manifestation of HD. GABA is viewed as the neurotransmitter that inhibits spontaneous involuntary movements, therefore loss of GABAergic MSNs is responsible for chorea development and other involuntary movements. The exquisite vulnerability of MSNs of striatum to degeneration in HD is caused by glutamate excitotoxicity that leads to neuronal dysfunction and death. Excessive activation of NMDA glutamate receptors is observed in post-mortem HD brain tissue (Kumar P. et al. Pharmacol. Rep. 2010; 62: 1). […] After 24 h of intoxication, viable GABAergic neurons are visualized and quantified by staining with a monoclonal anti-Glutamic Acid Decarboxylase antibody (specific for isoform GAD67). […]
For each condition, 30 pictures per well were acquired (representing 80% of the total surface of the well) using ImageXpress (Molecular device) equipped with a LED at 20× magnification. […] The number of GAD67-positive neurons was automatically analyzed using MetaXpress software (Molecular device). […] All values were expressed as mean+/−SEM (s.e. mean) (n=6 wells per condition per culture).

[2] = test system: rat primary dopaminergic neurons; experiment: Cellular model of Parkinson's disease, survival of rat primary dopaminergic neurons after 6-hydroxydopamine injury; type: cell-based
Source text: 6-hydroxydopamine (6-OHDA) is a selective catecholaminergic neurotoxin that is not only used as a pharmacological agent able to trigger PD-like stigmata (Sauer H. and Oertel W H Neuroscience 1994; 59: 401 and Cass W A et al. Brain Res. 2002; 938: 29) but also likely corresponds to a natural dopaminergic catabolite that accumulates in PD-affected brains and that appears to strongly contribute to this pathology (Jellinger K. et al. J. Neural. Transm. 1995; 46: 297). For this reason, 6-OHDA-induced dopaminergic neurotoxicity in mice is widely used as a model for PD research. Because 6-OHDA also induces neurodegeneration of dopaminergic neurons in vitro, it provides a useful model of PD. In this in vitro test mesencephalic dopaminergic neurons are exposed to 6-OHDA injury. […] After 24 h of intoxication, viable dopaminergic neurons are visualized and quantified by staining with a monoclonal Anti-Tyrosine Hydroxylase (TH) antibody. Tyrosine Hydroxylase is the first and rate-limiting enzyme involved in the biosynthesis of catecholamines like dopamine and norepinephrin from Tyrosine and has a key role in the physiology of adrenergic neurons. Tyrosine hydroxylase is commonly used as a marker for dopaminergic neurons, which is particularly relevant for research in Parkinson's disease.
Rat dopaminergic neurons were cultured as described by Schinelli et al. J. Neurochem. 1988; 50: 1900 and Visanji N P et al. FASEB J. 2008; 22: 2488. Briefly, the midbrains obtained from 15-day old rat embryos (Janvier, France) were dissected under a microscope. The embryonic midbrains were removed and placed in ice-cold medium of Leibovitz (L15) containing 2% of Penicillin-Streptomycin (PS) and 1% of bovine serum albumin (BSA). The ventral portion of the mesencephalic flexure, a region of the developing brain rich in dopaminergic neurons, was used for the cell preparations.
The midbrains were dissociated by trypsinisation for 20 min at 37° C. (Trypsin EDTA 1X). […] Viable cells were counted in a Neubauer cytometer using the trypan blue exclusion test. […]

[3] = Crossing of the blood-brain barrier, inferred from activity by intra-peritoneal route; type: in vivo; conditions: concluded from biological activity after intra-peritoneal administration
Source text: To cross the BBB, persons skilled in the art know that the molecular and physicochemical properties of the molecule must fulfill the 5 criteria described by Lipinski et al. (1997). Adv Drug Del Rev 23: 3-25 (amongst them a low molecular weight, its hydrophobicity, its charge etc. . . . ).

## N[C@@H](CCC(=O)O)C(=O)O [glutamate, reference compound]
[1]; glutamate 10 μM, 20 min, read after 24 h, no protective pre-treatment
  reduction of survival of GAD67-positive MSN compared to control culture conditions: 38%

## EAKSQGGSD [PAT peptide, Glu-Ala-Lys-Ser-Gln-Gly-Gly-Ser-Asp (EAKSQGGSD)]
[2]; PAT 10 nM, 1 h pre-incubation, then 6-OHDA 20 μM for 24 h
  survival of TH-positive dopaminergic neurons (% of control condition): 100%
[3]
  passage across the blood-brain barrier: crosses the BBB

## NCCc1cc(O)c(O)cc1O [6-OHDA, 6-hydroxydopamine, reference compound]
[2]; 6-OHDA 20 μM, 24 h, no protective pre-treatment
  reduction of survival of TH-positive dopaminergic neurons compared to control culture conditions: 31%

B1: BNDF: survival promoting brain derived neurotrophic factor used as a positive control (protein, UniProt P23560 19-247, looked up)
Neurotrophic factor BDNF …: APMKEANIRGQGGLAYPGVRTHGTLESVNGPKAGSRGLTSLADTFEHVIEELLDEDQKVRPNEENNKDADLYTSRVMLSSQVPLEPPLLFLLEEYKNYLDAANMSMRVRRHSDPARRGELSVCDSISEWVTAADKKTAVDMSGGTVTVLEKVPVSKGQLKQYFYETKCNPMGYTKEGCRGIDKRHWNSQCRTTQSYVRALTMDSKKRIGWRFIRIDTSCVCTLTIKRGR
[2]; BDNF 50 ng/mL (2 nM), 1 h pre-incubation, 6-OHDA 20 μM 24 h
  protection of TH-positive neurons from 6-OHDA-induced cell death: fully protected
[1]; BDNF 50 ng/mL (2 nM), 1 h pre-incubation, glutamate 10 μM 20 min, then 24 h
  survival of GAD67-positive neurons (cell survival, % of control): 81%
